Laboratory results from US20240307409A1, “ARGININE METHYLTRANSFERASE INHIBITOR AND USE THEREOF” (Cytosinlab Therapeutics Co., Ltd., priority 2021, published 2024).

How the values were obtained:
PRMT1 = PRMT1 (Homo sapiens, UniProt Q99873); assay: PRMT1 enzyme activity test; assay type: biochemical; details: 0.5 nM PRMT1, 3H-SAM, peptide
Description: PRMT1 enzyme activity test were performed in a buffer prepared on the same day 5 consisting of 10 mMTirs-HCl (pH=8.0), 0.01% Tween-20 and 1 mM DTT. The compounds were prepared to the highest inhibitor concentration ultimately required in the 100× reaction with 100% DMSO and then transferred to one well of a 384-well Echo plate (Echo-eligible 384-well polypropylene microplates 2.0, transparent, flat-bottomed) and sequentially diluted in the next well with a 3-fold dilution of 100% DMSO, and so on, with a total of 10 concentrations based on Precision. 100% DMSO was added to two empty wells to serve as control well without compound and control well without enzyme in the same 384-well Echo plate. 250 nL of compound was transferred from each well of the 384-well Echo plate to a 384-well assay plate (384-well polypropylene storage microplate) via the Echo 550 liquid processor. For wells with compounds and control well without compound, a mixture (15 uL) containing PRMT1 enzyme was added to the 384-well assay plate. For control wells without enzyme, the mixture containing the assay buffer (15 uL) was added instead. The compounds were allowed to incubate with PRMT1 for 15 minutes at room temperature, and then a mixture containing ^3H-SAM and peptide (10 uL) was added to start the reaction (final volume=25 uL). The final concentrations of the components were as follows: 0.5 nM for PRMT1, 0.25 uM for ^3H-SAM, 0.1 uM for the peptide, and 1% DMSO. After 120 min of incubation, the assay was terminated by the addition of non-radiolabeled SAM (5 uL) to a final concentration of 125 uM, which diluted 3H-SAM to a level at which its incorporation into the peptide substrate was no longer detected. 25 μL of the reaction solution from the 384-well assay plate was then transferred to a 384-well detection plate (Streptavidin FlashPlate HTS PLUS, high volume, 384 wells). The biotinylated peptide was allowed to bind to the surface of the antibiotic protein streptavidin for at least 60 minutes at room temperature. The Flashplate was then washed three times with 0.1% Tween-20 in a BioTek plate washer. Plates were read on a microplate counter (MicroBeta2) to measure the amount of ^3H-labeled peptide bound to the surface of the detection plate, measured in counts per minute (cpm).
The raw data were copied from the Reader and the inhibition values were calculated in Excel by Equation (1), Equation (1): Inh %=(CPMmax−CPMcmpd)/(CPMmax−CPMmin)*100, wherein the Max signal was obtained from the enzyme-substrate interaction and the Min signal was obtained from the substrate. IC50 values were obtained by fitting the data through equation (2) using XLFit add-in for Excel version […]. Equation (2): Y=Bottom+(Top-Bottom)/(1+((IC50/X)[…])), wherein, Y represents inhibition percentage and X represents compound concentration.

Toledo cells = assay: Toledo cell proliferation inhibition assay; assay type: cell-based; details: Homo sapiens, Toledo, 144 h; six-day assay, CellTiter-Glo
Description: • A. Purpose: to determine the effects of compounds on Toledo cells through a six-day cell proliferation assay. • B. Reagents and materials: • 1. Cell culture medium: RPMI 1640+10% FBS • 2. 384-well cell culture plate (Corning, item #3764) • 3. 0.4% Taipan Blue Staining Solution (Thermo Fisher, item #T10282) • 4. cell counting plate (Thermo Fisher, item #C10228) • 5. 50 ml reagent reservoir (Corning, item #4870) • 6. 50 ml conical sterile polypropylene centrifuge tube (Thermo Fisher, item #339653) • 7. Automatic cell counter (Thermo Fisher, item #AMQAX1000) • 8. CellTiter-Glo Luminescent Cell Viability Detection Reagent (Promega, item #G7572) • 9. SpectraMax i3x Multi-Mode Enzyme Labeling Instrument (Megaman Molecular Instruments, item #5024062) • C. Experimental method • 1. Resuspending the cells with a pipette. • 2. 0.4% Taipan blue staining solution and Toledo cells were mixed in equal proportion, and the cells were counted using an automatic cell counter. • 3. Toledo cells were diluted to a final concentration of 2000 cells per well and transferred to a 50 ml reagent reservoir. • 4. Diluted Toledo cells were added to a 384-well cell culture plate, 40 ul per well. • 5. The cells were shortly centrifuged and settled. • 6. The cells were incubated in a 37° C., 5% CO2 cell culture incubator. • 7. The substrate in the CellTiter-Glo Luminescent Cell Viability Detection Reagent was mixed with the solution. • 8. After six days, the 384-well cell culture plate was taken from the incubator and 20 ul of configured CellTiter-Glo reagent was added to each well. • 9. 384-well cell culture platewasmixed in an orbital shaker for 30 minutes. • 10. Signal of luminescence was detected with a SpectraMax i3x multi-mode enzyme labeling instrument.

PRMT1, sequence (Q99873 whole entry): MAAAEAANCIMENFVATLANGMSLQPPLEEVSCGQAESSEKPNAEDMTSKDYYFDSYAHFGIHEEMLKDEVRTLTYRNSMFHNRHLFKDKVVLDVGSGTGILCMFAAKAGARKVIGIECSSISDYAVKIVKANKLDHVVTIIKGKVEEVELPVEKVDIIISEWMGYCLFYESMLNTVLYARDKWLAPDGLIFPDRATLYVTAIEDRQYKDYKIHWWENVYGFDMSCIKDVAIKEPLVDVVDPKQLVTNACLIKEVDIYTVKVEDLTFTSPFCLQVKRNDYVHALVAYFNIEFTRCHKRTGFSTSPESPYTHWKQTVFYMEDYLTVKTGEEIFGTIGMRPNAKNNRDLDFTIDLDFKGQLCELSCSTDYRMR

IC50 (PRMT1)	Compound	IC50 (Toledo cells)
< 0.05 µM	CNCCN(C)Cc1ccc2c(c1C1CCN(c3cccc(C)c3)CC1)CCC(=O)N2 [P155]	< 1 µM
≥ 0.5 µM	CNCCN(C)Cc1cc(C(=O)NC)ccc1C1CCN(c2cccc(C)c2)CC1 [P159]	≥ 5 µM
< 0.05 µM	CNCCN(C)Cc1ccc(C(=O)NC)cc1C1CCN(c2cccc(C)c2)CC1 [P160]	< 1 µM
0.05 to 0.5 µM	CNCCN(C)Cc1ccc(C)nc1C1CCN(c2cccc(NC)c2)CC1 [P162]	< 1 µM
< 0.05 µM	CNCCN(C)Cc1ncccc1C1CCN(c2ccc3c(c2)CCO3)CC1 [P163]	< 1 µM
< 0.05 µM	CNCCN(C)Cc1ncccc1C1CCN(c2cccc3c2OCC3)CC1 [P164]	1 to 5 µM
< 0.05 µM	CNCCN(C)Cc1ncccc1N1CCC(OCc2ccccc2)CC1 [P166]	< 1 µM
< 0.05 µM	CNCCN(C)Cc1ncccc1C1CCN(c2ccc(OC)cc2)CC1 [P168]	1 to 5 µM
< 0.05 µM	CNCCN(C)Cc1ncccc1C1CCN(c2cccc(OC)c2)CC1 [P169]	< 1 µM
< 0.05 µM	CNCCN(C)Cc1ccc(F)cc1C1CCN(c2nccc(N3CCCC3)n2)CC1 [P172]	< 1 µM
< 0.05 µM	CCOC[C@H]1CC[C@H](c2cccnc2CN(C)CCNC)CC1 [P173]	< 1 µM
< 0.05 µM	CCOC[C@H]1CC[C@@H](c2cccnc2CN(C)CCNC)CC1 [P174]	1 to 5 µM
< 0.05 µM	CNCCN(C)Cc1ccc2[nH]c(C)nc2c1C1CCN(c2cccc(C)c2)CC1 [P176]	< 1 µM
< 0.05 µM	CNCCN(C)Cc1ncccc1N1CCCCC1 [P177]	1 to 5 µM
< 0.05 µM	CNCCN(C)Cc1ncccc1N1CCC(Oc2ccc(F)cc2)CC1 [P178]	< 1 µM
< 0.05 µM	CNCCN(C)Cc1ccc2c(c1C1CCN(c3cccc(C)c3)CC1)CC(=O)N2 [P180]	< 1 µM
< 0.05 µM	CCOCC1(CC)CCN(c2cccnc2CN(C)CCNC)CC1 [P182]	< 1 µM
< 0.05 µM	CNCCN(C)Cc1cc(F)c2[nH]ncc2c1C1CCN(c2cccc(C)c2)CC1 [P183]	< 1 µM
< 0.05 µM	CNCCN(C)Cc1ccc(C)nc1C1CCN(c2ccc(C#N)cc2)CC1 [P188]	1 to 5 µM
< 0.05 µM	CNCCN(C)Cc1ccc2[nH]cnc2c1C1CCN(c2cccc(C)c2)CC1 [P189]	< 1 µM
< 0.05 µM	CNCCN(C)Cc1ccc2[nH]ncc2c1C1CCN(c2cccc(C)c2)CC1 [P190, N^1,N^2-dimethyl-N^1-((4-(1-(m-tolyl)piperidin-4-yl)-1H-indazol-5-yl)methyl)ethane-1,2-dia mine]	< 1 µM
< 0.05 µM	CNCCN(C)Cc1ncccc1C1CCN(c2ccc(C(=O)N(C)C)cc2)CC1 [P192]	≥ 5 µM
< 0.05 µM	CNCCN(C)Cc1ncccc1C1CCN(c2ccnc(C)c2)CC1 [P193]	1 to 5 µM
< 0.05 µM	CNCCN(C)Cc1ncccc1N1CCC(Nc2ccccc2)CC1 [P194]	1 to 5 µM
< 0.05 µM	CNCCN(C)Cc1ccc(CC(N)=O)cc1C1CCN(c2cccc(C)c2)CC1 [P195]	< 1 µM
< 0.05 µM	CCOCC1(COCC)CCC(c2cc(F)cnc2CN(C)CCNC)CC1 [P196]	< 1 µM
≥ 0.5 µM	CNCCN(C)Cc1ncccc1N1CCCC1 [P197]	≥ 5 µM
< 0.05 µM	CNCCN(C)Cc1ncccc1C1CCN(c2ccccc2C#N)CC1 [P201]	< 1 µM

IC50 (PRMT1)	Compound	IC50 (Toledo cells)
0.05 to 0.5 µM	CNCCN(C)Cc1ncccc1C1CCN(C(=O)c2ccccc2)CC1 [P203]	≥ 5 µM
0.05 to 0.5 µM	CCOCC1(COCC)CCC(c2ccncc2CN(C)CCNC)CC1 [P205]	1 to 5 µM
< 0.05 µM	CNCCN(C)Cc1ncccc1C1CCN(c2cccnc2)CC1 [P214]	1 to 5 µM
< 0.05 µM	CNCCN(C)Cc1ncccc1C1CCN(c2ccncc2)CC1 [P215]	1 to 5 µM
< 0.05 µM	CNCCN(C)Cc1ncccc1C1CCN(c2ccccn2)CC1 [P216]	1 to 5 µM
0.05 to 0.5 µM	CCOCC1CCCN(c2cccnc2CN(C)CCNC)C1 (stereo not shown) [P217]	1 to 5 µM
< 0.05 µM	CCOCC1CCN(c2cccnc2CN(C)CCNC)CC1 [P218]	1 to 5 µM
< 0.05 µM	CNCCN(C)Cc1ccc(C(N)=O)cc1C1CCN(c2cccc(C)c2)CC1 [P221]	< 1 µM
< 0.05 µM	CCN1CC2(CCC(c3cccnc3CN(C)CCNC)CC2)CC1=O (stereo not shown) [P222]	≥ 5 µM
< 0.05 µM	CNCCN(C)Cc1ncccc1N1CCC(OC(C)C)CC1 [P224]	1 to 5 µM
< 0.05 µM	CNCCN(C)Cc1nc(N)ccc1C1CCN(c2cccc(C)c2)CC1 [P227]	< 1 µM
< 0.05 µM	CNCCN(C)Cc1ccc2[nH]ncc2c1N1CCc2ccccc2CC1 [P228]	< 1 µM
< 0.05 µM	CNCCN(C)Cc1ncccc1N1CCC(Oc2ccccc2OC(F)(F)F)CC1 [P230]	< 1 µM
< 0.05 µM	CNCCN(C)Cc1ncccc1N1CCCC(OC)CC1 (stereo not shown) [P233]	≥ 5 µM
0.05 to 0.5 µM	CNCCN(C)Cc1ncccc1C1CCN(c2ccc3c(c2)OC(C)(C)O3)CC1 [P234]	1 to 5 µM
< 0.05 µM	CNCCN(C)Cc1ncccc1N1CCC(Oc2cccc(OC)c2)CC1 [P238]	< 1 µM
< 0.05 µM	CNCCN(C)Cc1ncccc1C1CCN(c2nc(C)nc3ccccc23)CC1 [P239]	1 to 5 µM
< 0.05 µM	CNCCN(C)Cc1ncccc1C1CCN(c2nc(C)cc(N3CCCC3)n2)CC1 [P242]	< 1 µM
0.05 to 0.5 µM	CCOCC1(COCC)CCN(c2cccnc2CN(C)CCNC)C1 [P248]	1 to 5 µM
0.05 to 0.5 µM	CNCCN(C)Cc1ncccc1C1CCN(c2cccc(C(=O)NC)c2)CC1 [P254]	≥ 5 µM
< 0.05 µM	CNCCN(C)Cc1ncccc1C1CCN(c2ccc(C(=O)NC)cc2)CC1 [P255]	1 to 5 µM
< 0.05 µM	CNCCN(C)Cc1ncccc1N1CCC(Oc2ccc(-n3ccnc3)cc2)CC1 [P259]	1 to 5 µM
< 0.05 µM	CNCCN(C)Cc1ncccc1N1CCCOCC1 [P260]	1 to 5 µM
< 0.05 µM	CNCCN(C)Cc1ncccc1C1CCN(c2cc(C)nc(C)n2)CC1 [P262]	1 to 5 µM
≥ 0.5 µM	CNCCN(C)Cc1ncccc1N1CCC(NC2CCOCC2)CC1 [P263]	≥ 5 µM
< 0.05 µM	CCOCC1(COCC)CCC(c2c(CN(C)CCNC)ccc3[nH]ncc23)CC1 [P266, N1-((4-(4,4-bis(ethoxymethyl)cyclohexyl)-1H-indazol-5-yl)methyl)-N1,N2-dimethylethane-1,2-diamine]	< 1 µM
< 0.05 µM	CNCCN(C)Cc1ncccc1N1CCC(Oc2ccncc2)CC1 [P267]	1 to 5 µM

Compound	IC50 (PRMT1)	IC50 (Toledo cells)
CNCCN(C)Cc1ncccc1N1CCN(C(C)C)CC1 [P161]	< 0.05 µM	< 1 µM
